The subject of series [1] is Staphylococcus aureus Smith. In words: Minimum inhibitory concentration (MIC) in vitro, antibacterial spectrum. The series is classed as cell-based.
The subject of series [2] is Staphylococcus aureus 209 P JC-1. The series is described as above. The class given is cell-based.
Series [3] relates to Escherichia coli NIHJ JC-2. The series is described as above. The series is classed as cell-based.
The test system of series [4] is Escherichia coli GN206. The description is as above. The series is classed as cell-based.
Series [5] deals with Salmonella typhimurium LT-2. The series is described as above. The series is classed as cell-based.
The subject of series [6] is Proteus mirabilis GN79. The description is as above. The series is classed as cell-based.
Series [7] has as its system Proteus vulgaris GN76. The series is described as above. The series is classed as cell-based.
The test system of series [8] is Proteus rettgeri GN624. Described as above. The series is classed as cell-based.
In series [9] the test system is Serratia marcescens No. 2. Described as above. The class given is cell-based.
Series [10] concerns Pseudomonas aeruginosa MB3833. Described as above. The series is classed as cell-based.
The subject of series [11] is Pseudomonas aeruginosa MB3829. Described as above. The series is classed as cell-based.
The test system of series [12] is Pseudomonas aeruginosa E-2. The series is described as above. The class given is cell-based.
The test system of series [13] is Streptococcus faecalis ATCC8043. The description is as above. The class given is cell-based.
In series [14] the test system is Streptococcus faecalis W-73. The description is as above. The class given is cell-based.
Series [15] has as its system Streptococcus faecalis W-74. The series is described as above. The class given is cell-based.
Series [16] concerns Streptococcus faecalis W-75. The description is as above. The series is classed as cell-based.
Series [17] has as its system Streptococcus faecalis. Briefly: Antibacterial activity in vitro, summary in words. Particulars: statement in words on Table 1. The series is classed as cell-based.
The test system of series [18] is Pseudomonas aeruginosa. In words: Antibacterial activity in vitro, summary in words. The class given is cell-based. To be noted: statement in words on Table 1. From the text: Besides, the compounds of Examples 1, 2, 4, 5 and 7 advantageously are also effective against Pseudomonas aeruginosa.
Series [19] is described as follows: Concentration in serum after subcutaneous administration to mice, bioassay with Escherichia coli. The series is classed as in vivo. To be noted: mouse, sc, 25 mg/kg subcutaneously; for concentration at 0.5 h: 1/2 hour; for concentration at 0.25 h: 1/4 hour; for concentration at 5 min: 1/12 hour. From the text: For the serum which was separated from the blood samples, the concentration in the serum of the compound administered was bioassayed using Escherichia coli as assay microorganism.

Six compounds from patent EP0188781A1, “1-Oxa-1-dethia-cephalosporin compounds and antibacterial agent comprising the same” (Merck & Co., Inc., priority 1984, dated 1986) can be followed below.

Each structure is given as a SMILES string.

With `CCN1CCN(C(=O)NC(C(=O)N[C@@H]2C(=O)N3C(C(=O)O)=C(CSc4nc(=O)c(O)nn4C)[C@H](C)O[C@H]23)c2csc(N)n2)C(=O)C1=O` (single isomer, unassigned) [Compound No. 5], the “Minimum inhibitory concentration (MIC)” value is reported as 3.13 in series [1]; 1.56 in series [2]; 0.10 in series [3]; 1.56 in series [4]; 0.10 in series [5]; 0.78 in series [6]. For the same compound, the “Minimum inhibitory concentration (MIC)” value in series [7] is given as 0.025; in series [8], 0.78; in [9], 0.39; in series [10], 3.13; in [11], 1.56; in series [12], 3.13. Besides, the “Minimum inhibitory concentration (MIC)” value in series [13] came out at 50; in [14], 25; in series [15], 6.25; in series [16], 3.13. In series [17], the “effective against Streptococcus faecalis” value was “effective”. For the same compound, in series [18], the “effective against Pseudomonas aeruginosa” value is given as “effective”. For the same compound, the concentration at 0.5 h in [19] stood at 25000 ng/mL. The compound further showed a concentration at 0.25 h in series [19] of 44000 ng/mL. The compound further yielded a concentration at 5 min in series [19] of 24000 ng/mL. In series [19], this compound gave a concentration at 1 h of 10000 ng/mL.
For `CCN1CCN(C(=O)NC(C(=O)N[C@@H]2C(=O)N3C(C(=O)O)=C(CSc4nc(=O)c(O)nn4C)CO[C@H]23)c2csc(N)n2)C(=O)C1=O` (single isomer, unassigned) [Compound No. 7], the “Minimum inhibitory concentration (MIC)” value in series [1] was determined as 1.56; in series [2] it was 0.78; in [3], 0.10; in [4], 1.56; in series [5], 0.10; in series [6], 50. For the same compound, the “Minimum inhibitory concentration (MIC)” value in series [7] worked out at 0.025; in series [8] it was 0.39; in series [9], 0.20; in series [10], 12.5; in series [11], 12.5; in [12], 25. Further, the “Minimum inhibitory concentration (MIC)” value worked out at 0.78 in series [13], 100 in series [14], 25 in [15] and 12.5 in [16]. Besides, the “effective against Pseudomonas aeruginosa” value in series [18] was “effective”. For the same compound, the concentration at 0.5 h in series [19] was 32000 ng/mL. In [19], this compound gave a concentration at 0.25 h of 34000 ng/mL. Moreover, the concentration at 5 min in series [19] is 25000 ng/mL. Moreover, the concentration at 1 h in series [19] worked out at 13000 ng/mL.
On to `CCO/N=C(\C(=O)N[C@@H]1C(=O)N2C(C(=O)O)=C(CSc3nc(=O)c(O)nn3C)[C@H](C)O[C@H]12)c1csc(N)n1` [Compound No. 2, (6R,7R)-7-[(z)-2-(2-aminothiazol-4-yl)-2-(ethoxyimino)acetamido]-(2S)-2-methyl-3-(2,5-dihydro-6-hydroxy-2-methyl-5-oxo-1,2,4-triazin-3-yl)thiomethyl-l-oxa-l-dethia-ceph-3-em-4-carboxylic acid], for which the “Minimum inhibitory concentration (MIC)” value worked out at 1.56 in series [1]; 1.56 in series [2]; 0.39 in [3]; 0.78 in [4]; 0.39 in [5]; 0.20 in series [6]. Further, the “Minimum inhibitory concentration (MIC)” value in [7] stood at 0.20; in series [8], 0.78; in series [9], 0.39; in series [10] it was 12.5; in series [11] it was 6.25; in series [12] it was 25. Moreover, the “Minimum inhibitory concentration (MIC)” value in series [13] was determined as 1.56; in [14], 50; in series [15], 6.25; in series [16], 0.20. Besides, in series [17], the “effective against Streptococcus faecalis” value is given as “effective”. Further, in series [18], the “effective against Pseudomonas aeruginosa” value is reported as “effective”.
With `CCO/N=C(\C(=O)N[C@@H]1C(=O)N2C(C(=O)O)=C(CSc3nc(=O)c(O)nn3C)CO[C@H]12)c1csc(N)n1` [Compound No. 4, (6R,7R)-7-[(Z)-2-(2-aminothiazol-4-yl)-2-(ethoxyimino)acetamido]-3-(2,5-dihydro-6-hydroxy-2-methyl-5-oxo-l,2,4-triazin-3-yl) thiomethyl-l-oxa-l-dethia-ceph-3-em-4-carboxylic acid], the “Minimum inhibitory concentration (MIC)” value is 1.56 in series [1]; 0.78 in series [2]; 0.10 in series [3]; 1.56 in [4]; 0.10 in series [5]; 0.025 in [6]. Besides, the “Minimum inhibitory concentration (MIC)” value came out at 0.05 in series [7]; 0.39 in series [8]; 6.25 in [10]; 25 in [12]; 25 in series [13]; 100 in series [14]. In addition, in [16], the “Minimum inhibitory concentration (MIC)” value was 0.20. For the same compound, in series [18], the “effective against Pseudomonas aeruginosa” value is on record as “effective”.
As to `C[C@@H]1O[C@@H]2[C@H](NC(=O)C(NC=O)c3csc(N)n3)C(=O)N2C(C(=O)O)=C1CSc1nc(=O)c(O)nn1C` (stereo partly drawn) [Compound No. 6, (6R,7R)-7-[2-(2-aminothiazol-4-yl)-2-(form-amido)acetamido]-(2S)-2-methyl-3-(2,5-dihydro-6-hydroxy-2-methyl-5-oxo-1,2,4-triazin-3-yl) thiomethyl-l-oxa-l-dethia-ceph-3-em-4-carboxylic acid], the “Minimum inhibitory concentration (MIC)” value in series [1] is listed as 1.56; in series [2], 0.78; in series [3] it was 0.10; in [4], 1.56; in [5] it was 0.025; in series [6] it was 0.10. Moreover, the “Minimum inhibitory concentration (MIC)” value in series [7] is 50; in series [8], 0.10; in [9] it was 0.20; in [10], 100; in [11], 50; in [12], 100. The “Minimum inhibitory concentration (MIC)” value in series [13] was 12.5; in series [14], 100; in series [15], 50; in series [16], 6.24. Moreover, in [17], the “effective against Streptococcus faecalis” value was “effective”.
Consider `CO[C@@]1(NC(=O)C(C(=O)O)c2ccc(O)cc2)C(=O)N2C(C(=O)O)=C(CSc3nnnn3C)CO[C@@H]21` (stereo partly drawn) [Latamoxef, reference compound], for which the “Minimum inhibitory concentration (MIC)” value in series [1] was 3.13; in series [2], 3.13; in [3], 0.10; in [4], 0.39; in series [5], 0.05; in [6] it was 0.10. Besides, the “Minimum inhibitory concentration (MIC)” value was 0.20 in series [7]; 0.05 in series [8]; 0.10 in [9]; 6.25 in series [10]; 12.5 in series [11]; 6.25 in [12]. Moreover, the “Minimum inhibitory concentration (MIC)” value in series [13] was determined as 25; in series [14], 100; in series [15] it was 100; in [16], 100.
